Experimental data reported in US10272117B2, “Methods of using an activator of cereblon for neural cell expansion and the treatment of central nervous system disorders” (Celgene Corporation, priority 2014, dated 2019).
Peptide text beside a SMILES is read from it. * marks the point of attachment. Cbz = O=C(OCc1ccccc1)*

Legend:
zebrafish embryos = experiment: Quantitative PCR of gene expression in zebrafish embryos; type: in vivo; conditions: 11 hpf
Protocol: BRD7-knockdown zebrafish embryos show similar phenotypes as CRBN-overexpressing zebrafish embryos. For example, expression of HuC in untreated, CRBN-overexpressing, and BRD7-knockdown zebrafish embryos was compared by quantitative PCR. Quantitative PCR was performed as follows: 1.7 μg of random […] and oligo-dT primed cDNA synthesized by ReverTra Ace qPCR RT Kit (TOYOBO, Japan) (as template) were used for reverse transcription by THUNDERBIRD™ SYBR® qPCR Mix (Toyobo, Japan). 0.25 mM of each forward and reverse primers were used in the reaction, wherein the sequence of the forward primer was 5′-[…]-3′ (SEQ ID NO: 9); and the sequence of the reverse primer was 5′-[…]-3′ (SEQ ID NO: 10).
Expression of Pou5f1 (Oct3/4), c-Myc, Sox2, and Nanog in zebrafish embryos was analyzed by quantitative PCR. Quantitative RT (qRT)-PCR was performed as follows: 1.7 μg of random hexamer and oligo-dT primed cDNA synthesized by ReverTra Ace qPCR RT Kit (TOYOBO, Japan) (as template) were used for reverse transcription by THUNDERBIRD™ SYBR® qPCR Mix (Toyobo, Japan). 0.25 mM of each forward and reverse primers was used in the reaction. The sequences of primers for c-Myc are as follows: forward primer is 5′-[…]-3′ (SEQ ID NO: 15), and reverse primer is 5′-GTAAAACGACGGCCAGT-3′ (SEQ ID NO: 16). The sequences of primers for sox2 are as follows: forward primer is 5′-ACCCCGGAGGAAAACCAA-3′ (SEQ ID NO: 17), and reverse primer is 5′-CCCGGCAGGGTGTACTTG-3′ (SEQ ID NO: 18). The sequences of primers for nanog are as follows: forward primer is 5′-TACCCAACACACCAGCTTC-3′ (SEQ ID NO: 19), and reverse primer is 5′-GAAGGGTGTTTTTGGAGGA-3′ (SEQ ID NO: 20).
Expression of a pool of three genes, Ascl1, Brn2 (Pou3f2), and Myt1la, is sufficient to directly reprogram embryonic and postnatal fibroblasts into functional neurons. See, e.g., Vierbuchen and Wernig, Nat Biotechnol. 29:892-907 […]. […] Primer sequences for amplification for Ascl1a are as follows: forward primer is 5′-ACGAGCATGACGCCGTA-3′ (SEQ ID NO: 21), and reverse primer is 5′-[…]-3′ (SEQ ID NO: 22). Primer sequences for amplification for Pou3f2b are as follows: forward primer is 5′-[…]-3′ (SEQ ID NO: 23), and reverse primer is 5′-[…]-3′(SEQ ID NO: 24). Primer sequences for amplification for Myt1la are as follows: forward primer is 5′-[…]-3′ (SEQ ID NO: 25), and reverse primer is 5′-[…]-3′ (SEQ ID NO: 26). FIG. […]
Notch3 and Neuropilin2b (Nrp2b) are required for cell proliferation progression. Notch3 regulates the timing of neural differentiation from undifferentiated or immature cells, and Nrp2b regulates cell proliferation and remodeling in mesenchymal stem cells by cooperating with PDGF (platelet-derived growth factor). Therefore, expression of Notch3 and Neuropilin 2b (Nrp2b) was analyzed in untreated and CRBN-overexpressing zebrafish embryos by quantitative PCR. The primers used for Notch3 are as follows: the sequence for forward primer is 5′-[…]-3′ (SEQ ID NO: 27), and the sequence for reverse primer is 5′-[…]-3′ (SEQ ID NO: 28). The primers used for Nrp2b are as follows: the sequence of forward primer is 5′-[…]-3′ (SEQ ID NO: 29), and the sequence of reverse primer is 5′-[…]-3′ (SEQ ID NO: 30). FIG. 29A is a histogram showing the mRNA level of Notch3 and Nrp2b in untreated, CRBN-overexpressing, and thalidomide-treated zebrafish embryos at 11 hpf by quantitative PCR. As shown, expression of Notch3 in the CRBN-overexpressing embryos increased to 1.8-fold of the level in the untreated embryos at 11 hpf, and expression of Nrp2b in the CRBN-overexpressing embryos increased to 2.7-fold of the level in the untreated embryos at the same stage.
Elval3 (Huc) is a neural progenitor marker. Expression of Elavl3 (Huc) was also analyzed by quantitative PCR and in situ hybridization. […]

zebrafish = experiment: Resistance to thalidomide in brain development (brain thickness to body length); type: in vivo; conditions: BRD7-knockdown larvae, 400 μM thalidomide
Protocol: To analyze the functional relationship between thalidomide and BRD7, brain development of BRD7-knockdown zebrafish treated with thalidomide was examined and compared with that of normal zebrafish treated with thalidomide. […] FIGS. 12A and 12B show the normal zebrafish treated with 400 μM thalidomide. FIGS. 12C and 12D show the BRD7-knockdown zebrafish treated with 400 μM thalidomide. FIGS. 12A′ and 12C′ show the brain regions of the normal zebrafish treated with 400 μM thalidomide. FIGS. 12B′ and 12D′ show the brain regions of the BRD7-knockdown zebrafish treated with 400 μM thalidomide. […] The percentages of brain thickness to body length in the normal and the BRD7-knockdown zebrafish, with or without thalidomide treatments were also measured. […] The brain size of the BRD7-knockdown larvae incubated in thalidomide is 98.8% of that of the BRD7-knockdown larvae incubated in the absence of thalidomide.

CRBN = experiment: Detection of the CRBN ubiquitin ligase activity using live cells; type: cell-based; conditions: mammalian cells expressing FLAG-CRBN, immunoblotting
Protocol: This process was carried out basically in accordance with the method of Ohtake et al. See Ohtake et al., Nature, 446:562-566 (2007). MG132, which was a proteasome inhibitor, was applied to mammalian cells expressing CRBN fused with a FLAG epitope tag, and the cells were left still. Subsequently, the cells were disrupted, and from the resulting cell lysate solution, FLAG was purified, and CRBN was extracted. Then immunoblotting was performed under similar, but stricter, conditions to the above, whereby self-ubiquitination was detected and measured.

[1] = fold of level in untreated embryos

O=C1CCC(N2C(=O)c3ccccc3C2=O)C(=O)N1 (stereo not shown) [thalidomide, reference compound]
expression of Nanog (change) (zebrafish embryos; FIG. 13): decreased
expression of Pou5f1 (change) (zebrafish embryos; FIG. 13): decreased
expression of Zic3 (change) (zebrafish embryos; FIG. 13): decreased
Notch3 mRNA expression (zebrafish embryos; [1]): 0.3 fold
Nrp2b mRNA expression (zebrafish embryos; [1]): 0.4 fold
brain size of BRD7-knockdown larvae incubated in thalidomide relative to absence of thalidomide (zebrafish): 98.8%

CC(C)C[C@@H](C=O)NC(=O)[C@H](CC(C)C)NC(=O)[C@H](CC(C)C)NC(=O)OCc1ccccc1 [MG132] (Cbz-Leu-Leu-Leu-aldehyde)
bands representing CRBN-containing (self-ubiquitinated) proteins (CRBN): a number of bands representing CRBN-containing proteins were detected
